Laboratory results published in patent publication US11472842B2 (Protagonist Therapeutics, Inc., priority 2015, dated 2022).
Starred links: 1 amine or outer side, 2 acyl side, 3 side chain; linkers in the order of their positions; H or OH if unused. Positions of bridges follow the written chain, without caps; N, C: chain ends. Residues, ends and D or L forms follow the SMILES beside them. Groups on a side chain read outwards from the residue. *: point of attachment. γGlu = O=C(O)[C@H](CCC(=O)[*:2])N[*:1]; Palmitoyl = CCCCCCCCCCCCCCCC(=O)*; Isovaleryl = CC(C)CC(=O)*

Biological target: T1, human ferroportin (Homo sapiens, UniProt Q9NP59)
T1 construct: expressed in transfected cells
T1 sequence (Q9NP59 1-571): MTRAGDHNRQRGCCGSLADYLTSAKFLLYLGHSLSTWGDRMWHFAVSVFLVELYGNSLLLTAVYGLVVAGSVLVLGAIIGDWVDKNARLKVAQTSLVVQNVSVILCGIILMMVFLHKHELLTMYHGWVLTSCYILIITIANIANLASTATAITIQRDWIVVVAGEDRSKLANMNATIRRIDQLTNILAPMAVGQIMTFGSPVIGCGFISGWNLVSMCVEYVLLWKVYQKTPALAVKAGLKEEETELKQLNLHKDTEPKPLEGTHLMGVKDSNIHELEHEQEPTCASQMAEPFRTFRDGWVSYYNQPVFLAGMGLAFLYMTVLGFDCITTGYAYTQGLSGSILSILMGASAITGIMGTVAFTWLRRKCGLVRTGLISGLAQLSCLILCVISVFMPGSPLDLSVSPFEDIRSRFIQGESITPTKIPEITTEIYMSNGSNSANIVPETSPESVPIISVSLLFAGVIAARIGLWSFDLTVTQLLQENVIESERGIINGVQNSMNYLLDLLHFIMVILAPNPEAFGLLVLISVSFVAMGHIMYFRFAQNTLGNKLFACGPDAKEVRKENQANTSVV
Test: Ferroportin internalization / degradation, HEK-GFP cell based assay (HEK293 cells stably expressing ferroportin-GFP, decrease in GFP fluorescence)
Conditions: Table 3 monomer analogues; ferroportin-GFP HEK293 cells, 18-24 h incubation; read-out: HEK-GFP cell based assay (potency EC50)
Description: Peptide analogues were tested in vitro for induction of internalization of the human ferroportin protein. Following internalization, the […] are degraded. The assay measures a decrease in fluorescence of the receptor.
The cDNA encoding the human ferroportin (SLC40A1) was cloned from a cDNA clone from Origene (NM_014585). The DNA encoding the ferroportin was amplified by PCR using primers also encoding terminal restriction sites for subcloning, but without the termination codon. The ferroportin receptor was subcloned into a mammalian GFP expression vector containing a neomycin (G418) resistance marker in such that the reading frame of the ferroportin was fused in frame with the GFP protein. The fidelity of the DNA encoding the protein was confirmed by DNA sequencing. HEK293 cells were used for transfection of the ferroportin-GFP receptor expression plasmid. The cells were grown according to standard protocol in growth medium and transfected with the plasmids using Lipofectamine (manufacturer's protocol, Invitrogen). […] The cells were propagated and frozen in aliquots.
Compound was added to desired final concentration for at least 18 hours in the incubator. […] Compound was added to desired final concentration for at least 18 hours but no more than 24 hours in the incubator.
The EC50 of these reference compounds for ferroportin degradation was determined according to the activity assay described above. These peptides served as control standards.
These values were determined as described herein.

| SMILES | DC50 [µM] |
| --- | --- |
| CCCCCCCCCCCCCCCC(=O)N[C@@H](CCC(=O)NCCCC[C@@H]1NC(=O)[C@H](Cc2ccccc2)NC(=O)[C@H](CCCCN)NC(=O)[C@H]([C@@H](C)CC)NC(=O)[C@@H](NC(=O)[C@@H]2CCCN2C(=O)[C@H](Cc2ccccc2)NC(=O)[C@H](Cc2c[nH]cn2)NC(=O)[C@@H](NC(=O)[C@H](CC(=O)O)NC(=O)CC(C)C)[C@@H](C)O)CSSC(C)(C)[C@@H](C(=O)N[C@@H](CCCCN)C(N)=O)NC(=O)CNC(=O)[C@H](CCCCN)NC(=O)[C@H](CO)NC(=O)[C@H](CCCNC(=N)N)NC(=O)[C@@H]2CCCN2C1=O)C(=O)O [Compound 5] | 0.013 |
| CCCCCCCCCCCCCC(=O)N[C@@H](CCC(=O)NCCCC[C@@H]1NC(=O)[C@H](Cc2ccccc2)NC(=O)[C@H](CCCCN)NC(=O)[C@H]([C@@H](C)CC)NC(=O)[C@@H](NC(=O)[C@@H]2CCCN2C(=O)[C@H](Cc2ccccc2)NC(=O)[C@H](Cc2c[nH]cn2)NC(=O)[C@@H](NC(=O)[C@H](CC(=O)O)NC(=O)CC(C)C)[C@@H](C)O)CSSC[C@@H](C(=O)N[C@@H](CCCCN)C(N)=O)NC(=O)CNC(=O)[C@H](CCCCN)NC(=O)[C@H](CO)NC(=O)[C@H](CCCNC(=N)N)NC(=O)[C@@H]2CCCN2C1=O)C(=O)O [Compound 13] | 0.01 |
| CC[C@H](C)[C@@H]1NC(=O)[C@@H](NC(=O)[C@@H]2CCCN2C(=O)[C@H](Cc2ccccc2)NC(=O)[C@H](Cc2c[nH]cn2)NC(=O)[C@@H](NC(=O)[C@H](CC(=O)O)NC(=O)CC(C)C)[C@@H](C)O)CSSC[C@@H](C(=O)N[C@@H](CCCCN)C(N)=O)NC(=O)CNC(=O)[C@H](CCCCN)NC(=O)[C@H](CO)NC(=O)[C@H](CCCNC(=N)N)NC(=O)[C@@H]2CCCN2C(=O)[C@H](CCCCNC(C)=O)NC(=O)[C@H](Cc2ccccc2)NC(=O)[C@H](CCCCN)NC1=O [Compound 25] | 0.014 |
| CCCCCCCCCCCCCCCC(=O)N[C@@H](CCC(=O)NCCCC[C@@H]1NC(=O)[C@H](Cc2ccccc2)NC(=O)[C@H](CCCCN)NC(=O)[C@H]([C@@H](C)CC)NC(=O)[C@@H](NC(=O)[C@@H]2CCCN2C(=O)[C@@H](NC(=O)[C@H](Cc2c[nH]cn2)NC(=O)[C@@H](NC(=O)[C@H](CC(=O)O)NC(=O)CC(C)C)[C@@H](C)O)C(c2ccccc2)c2ccccc2)CSSC[C@@H](C(=O)N[C@@H](CCCCN)C(N)=O)NC(=O)CNC(=O)[C@H](CCCCN)NC(=O)[C@H](CO)NC(=O)[C@H](CCCNC(=N)N)NC(=O)[C@@H]2CCCN2C1=O)C(=O)O [Compound 7, Isovaleric acid-DTH-[Dpa]-PCIKF-[Lys(IsoGlu-Palm)]-PRSKGCK-NH2] | 0.012 |
| CCCCCCCCCCCCCCCC(=O)N[C@@H](CCC(=O)NCCCC[C@@H]1NC(=O)[C@H](Cc2ccccc2)NC(=O)[C@H](CCCCN)NC(=O)[C@H]([C@@H](C)CC)NC(=O)[C@@H](NC(=O)[C@@H]2CCCN2C(=O)[C@H](Cc2ccccc2)NC(=O)[C@H](Cc2c[nH]cn2)NC(=O)[C@@H](NC(=O)[C@H](CC(=O)O)NC(=O)CC(C)C)[C@@H](C)O)C(C)(C)SSC[C@@H](C(=O)N[C@@H](CCCCN)C(N)=O)NC(=O)CNC(=O)[C@H](CCCCN)NC(=O)[C@H](CO)NC(=O)[C@H](CCCNC(=N)N)NC(=O)[C@@H]2CCCN2C1=O)C(=O)O [Compound 4, Isovaleric acid-DTHFP-[Pen]-IKF-[Lys(IsoGlu-Palm)]-PRSKGCK-NH2] | 0.068 |
| CCCCCCCCCCCCCCCC(=O)NCCCC[C@@H]1NC(=O)[C@H](Cc2ccccc2)NC(=O)[C@H](CCCCN)NC(=O)[C@H]([C@@H](C)CC)NC(=O)[C@@H](NC(=O)[C@@H]2CCCN2C(=O)[C@H](Cc2ccccc2)NC(=O)[C@H](Cc2c[nH]cn2)NC(=O)[C@@H](NC(=O)[C@H](CC(=O)O)NC(=O)CC(C)C)[C@@H](C)O)CSSC[C@@H](C(=O)N[C@@H](CCCCN)C(N)=O)NC(=O)CNC(=O)[C@H](CCCCN)NC(=O)[C@H](CO)NC(=O)[C@H](CCCNC(=N)N)NC(=O)[C@@H]2CCCN2C1=O [Compound 20] | 0.019 |
| CC[C@H](C)[C@@H]1NC(=O)[C@@H](NC(=O)[C@@H]2CCCN2C(=O)[C@H](Cc2ccccc2)NC(=O)[C@H](Cc2c[nH]cn2)NC(=O)[C@@H](NC(=O)[C@H](CC(=O)O)NC(=O)CC(C)C)[C@@H](C)O)CSSC[C@@H](C(=O)N[C@@H](CCCCN)C(N)=O)NC(=O)CNC(=O)[C@H](CCCCN)NC(=O)[C@H](CO)NC(=O)[C@H](CCCNC(=N)N)NC(=O)[C@@H]2CCCN2C(=O)[C@H](CCCCNC(=O)CC[C@H](NC(=O)CC(C)C)C(=O)O)NC(=O)[C@H](Cc2ccccc2)NC(=O)[C@H](CCCCN)NC1=O [Compound 15] | 0.026 |
| CCCCCCCCCCCCCCCC(=O)N[C@@H](CCC(=O)NCCCC[C@@H]1NC(=O)[C@H](Cc2ccccc2)NC(=O)[C@H](CCCCN)NC(=O)[C@H](CCCCN)NC(=O)[C@@H](NC(=O)[C@@H]2CCCN2C(=O)[C@H](Cc2ccccc2)NC(=O)[C@H](Cc2c[nH]cn2)NC(=O)[C@@H](NC(=O)[C@H](CC(=O)O)NC(=O)CC(C)C)[C@@H](C)O)CSSC[C@@H](C(=O)N[C@@H](CCCCN)C(N)=O)NC(=O)CNC(=O)[C@H](CCCCN)NC(=O)[C@H](CO)NC(=O)[C@H](CCCNC(=N)N)NC(=O)[C@@H]2CCCN2C1=O)C(=O)O [Compound 11] (Isovaleryl-DTHFPCKKFK([γGlu-Palmitoyl])PRSKGCK-NH2; disulfide 6-16) | 0.022 |
| CCCCCCCCCCCCCCCC(=O)NCCCCCC(=O)NCCCC[C@@H]1NC(=O)[C@H](Cc2ccccc2)NC(=O)[C@H](CCCCN)NC(=O)[C@H]([C@@H](C)CC)NC(=O)[C@@H](NC(=O)[C@@H]2CCCN2C(=O)[C@H](Cc2ccccc2)NC(=O)[C@H](Cc2c[nH]cn2)NC(=O)[C@@H](NC(=O)[C@H](CC(=O)O)NC(=O)CC(C)C)[C@@H](C)O)CSSC[C@@H](C(=O)N[C@@H](CCCCN)C(N)=O)NC(=O)CN(C)C(=O)[C@H](CCCCN)NC(=O)[C@H](CO)NC(=O)[C@H](CCCNC(=N)N)NC(=O)[C@@H]2CCCN2C1=O [Compound 24] | 0.01 |
| CCCCCCCCCCCCCCCC(=O)N[C@@H](CCC(=O)NCCCC[C@@H]1NC(=O)[C@H](Cc2ccccc2)NC(=O)[C@H](CCCCN)NC(=O)[C@H]([C@@H](C)CC)NC(=O)[C@@H](NC(=O)[C@@H]2CCCN2C(=O)[C@@H](NC(=O)[C@H](Cc2c[nH]cn2)NC(=O)[C@@H](NC(=O)[C@H](CC(=O)O)NC(=O)CC(C)C)[C@@H](C)O)C(c2ccccc2)c2ccccc2)CSSC[C@@H](C(=O)N[C@@H](CCCCN)C(N)=O)NC(=O)CN(C)C(=O)[C@H](CCCCN)NC(=O)[C@H](CO)NC(=O)[C@H](CCCNC(=N)N)NC(=O)[C@@H]2CCCN2C1=O)C(=O)O [Compound 8, Isovaleric acid-DTH-[Dpa]-PCIKF-[Lys(IsoGlu-Palm)]-PRSK-[Sar]-CK-NH2] | 0.015 |
